Drawing on publication PMC6540056, “A Thermostable Aspergillus fumigatus GH7 Endoglucanase Over-Expressed in Pichia pastoris Stimulates Lignocellulosic Biomass Hydrolysis” (International Journal of Molecular Sciences, 2019), this text covers inhibition for one molecule.

The target of this test is T1, Af-EGL7 (Aspergillus fumigatus, UniProt Q4WCM9).
T1 construct: gene AFUA_6G01800; ORF without predicted signal peptide in pPICZalphaA, alpha-factor secretion signal, C-terminal vector tag with His6 kept, from Pichia pastoris X-33, N-glycosylated, about 70 kDa on SDS-PAGE; forward primer encodes EF-QQPAA at N-terminus
T1 sequence (Q4WCM9 21-460): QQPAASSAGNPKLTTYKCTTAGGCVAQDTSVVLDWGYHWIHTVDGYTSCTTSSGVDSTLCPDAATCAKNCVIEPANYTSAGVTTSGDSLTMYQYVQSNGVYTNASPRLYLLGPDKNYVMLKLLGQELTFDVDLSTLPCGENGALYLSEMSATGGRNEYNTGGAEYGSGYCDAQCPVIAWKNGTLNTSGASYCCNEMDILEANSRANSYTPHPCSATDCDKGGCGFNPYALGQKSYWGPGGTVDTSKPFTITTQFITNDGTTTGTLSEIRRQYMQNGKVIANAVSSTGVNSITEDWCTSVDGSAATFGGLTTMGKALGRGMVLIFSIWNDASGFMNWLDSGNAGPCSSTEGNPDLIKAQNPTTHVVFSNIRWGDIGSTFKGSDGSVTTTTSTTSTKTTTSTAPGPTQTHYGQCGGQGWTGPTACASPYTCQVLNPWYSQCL
The test is described as follows: colorimetric, Azo-Xyloglucan hydrolysis, […] nm. Format: biochemical. Conditions: read-out: % inhibition at 50 mM.

In the case of `OC[C@H]1O[C@@H](O[C@H]2[C@H](O)[C@@H](O)C(O)O[C@@H]2CO)[C@H](O)[C@@H](O)[C@@H]1O` (stereo partly shown) [cellobiose], the inhibition at 50000 µM worked out at 35%.

Usually inhibition stands for the percentage by which the read-out fell short of the control.
